Measurements from PubChem BioAssay (NCI).
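48-hour exposure; five concentrations; linearly interpolated endpoints. GI50 marks 50% less growth. TGI: concentration producing complete growth inhibition.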

Tests used:
Assay in all cases: NCI anticancer screen, dose series, 48 h
[1] = test system: 786-0 renal
[2] = test system: A498 renal
[3] = test system: A549 NSCLC
[4] = test system: ACHN renal
[5] = test system: CAKI-1 renal
[6] = test system: CCRF-CEM leukemia
[7] = test system: COLO 205 colon
[8] = test system: DLD-1 colon
[9] = test system: DMS 273 small cell lung
[10] = test system: EKVX NSCLC
[11] = test system: HCC-2998 colon
[12] = test system: HCT-116 colon
[13] = test system: HCT-15 colon
[14] = test system: HL-60(TB) leukemia
[15] = test system: HOP-18 NSCLC
[16] = test system: HOP-62 NSCLC
[17] = test system: HOP-92 NSCLC
[18] = test system: HT29 colon
[19] = test system: IGROV1 ovarian
[20] = test system: K-562 leukemia
[21] = test system: KM12 colon
[22] = test system: KM20L2 colon
[23] = test system: LOX IMVI melanoma
[24] = test system: LXFL 529 NSCLC
[25] = test system: M14 melanoma
[26] = test system: M19-MEL melanoma
[27] = test system: MALME-3M melanoma
[28] = test system: MOLT-4 leukemia
[29] = test system: NCI-H226 lung
[30] = test system: NCI-H23 lung
[31] = test system: NCI-H460 lung
[32] = test system: NCI-H522 lung
[33] = test system: OVCAR-3 ovarian
[34] = test system: OVCAR-4 ovarian
[35] = test system: OVCAR-5 ovarian
[36] = test system: OVCAR-8 ovarian
[37] = test system: RPMI-8226 leukemia
[38] = test system: RXF 393 renal
[39] = test system: RXF-631 renal
[40] = test system: SF-268 CNS
[41] = test system: SF-295 CNS
[42] = test system: SF-539 CNS
[43] = test system: SK-MEL-2 melanoma
[44] = test system: SK-MEL-28 melanoma
[45] = test system: SK-MEL-5 melanoma
[46] = test system: SK-OV-3 ovarian
[47] = test system: SN12C renal
[48] = test system: SNB-19 CNS
[49] = test system: SNB-75 CNS
[50] = test system: SNB-78 CNS
[51] = test system: SR leukemia
[52] = test system: SW-620 colon
[53] = test system: TK-10 renal
[54] = test system: U251 CNS
[55] = test system: UACC-257 melanoma
[56] = test system: UACC-62 melanoma
[57] = test system: UO-31 renal
[58] = test system: XF 498 CNS

## CC(=O)OC1C(=O)C(O)C(C)OC1O[C@@H]1C[C@@]2(C)[C@@H]3CC=C4[C@@H](C[C@H](O)C(=O)C4(C)C)[C@]3(C)C(=O)C[C@]2(C)[C@H]1[C@@](C)(O)C(=O)/C=C/C(C)(C)O (stereo partly drawn)
[1]
  TGI: 4.64 µM
[2]
  TGI: 1.04 µM
[3]
  TGI: > 10 µM
[4]
  TGI: 7.38 µM
[5]
  TGI: 2.98 µM
[6]
  TGI: > 7.21 µM
[7]
  TGI: > 6.77 µM
[8]
  TGI: > 10 µM
[9]
  GI50: 0.0452 µM
[10]
  TGI: > 7.55 µM
[11]
  TGI: 8.32 µM
[12]
  TGI: > 10 µM
[13]
  TGI: > 9.45 µM
[14]
  TGI: 7.1 µM
[15]
  TGI: 4.9 µM
[16]
  TGI: 5.42 µM
[17]
  TGI: 2.52 µM
[18]
  TGI: > 10 µM
[19]
  TGI: 4.62 µM
[20]
  TGI: > 10 µM
[21]
  TGI: > 10 µM
[22]
  TGI: 8.3 µM
[23]
  TGI: 2.76 µM
[24]
  TGI: > 10 µM
[25]
  TGI: > 10 µM
[26]
  TGI: > 10 µM
[27]
  TGI: 9.83 µM
[28]
  TGI: > 10 µM
[29]
  TGI: 2 µM
[30]
  TGI: > 10 µM
[31]
  TGI: > 10 µM
[32]
  TGI: 6.12 µM
[33]
  TGI: 7.05 µM
[34]
  TGI: 5.51 µM
[35]
  TGI: > 10 µM
[36]
  TGI: > 10 µM
[37]
  TGI: 8.04 µM
[38]
  TGI: 1.43 µM
[39]
  TGI: 7.85 µM
[40]
  TGI: 4.01 µM
[41]
  TGI: 7.19 µM
[42]
  TGI: 1.97 µM
[43]
  GI50: 0.055 µM
[44]
  TGI: 0.803 µM
[45]
  TGI: 8.4 µM
[46]
  TGI: > 9.33 µM
[47]
  TGI: > 10 µM
[48]
  TGI: 4.56 µM
[49]
  TGI: 1.47 µM
[50]
  GI50: 0.0626 µM
[51]
  TGI: > 10 µM
[52]
  TGI: 9.85 µM
[53]
  TGI: 3.44 µM
[54]
  TGI: 5.41 µM
[55]
  TGI: 7.05 µM
[56]
  TGI: > 7.98 µM
[57]
  TGI: 4.95 µM
[58]
  TGI: 0.64 µM
